Results: PubChem BioAssay AID1963966 (Molecular Pharmacology Branch, DTP, NCI, 2024)

Tested on: 935938-334-R-J1-PDC spheroids with HUVEC/MSC, viability
Assay: Anticancer human tumor 935938-334-R-J1-PDC patient-derived small intestine adenocarcinoma cell line growth inhibition [PI3K]
Settings: for IC50: curve of first compound; for viability, T/C: stronger effect = lower value
Method in brief: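 Complex 3D spheroids (cancer cells + endothelial HUVEC + mesenchymal stem cells); drug pairs of targeted agent x inavolisib/alpelisib/duvelisib/copanlisib; half-log series from ~Cmax, max 10 microM if Cmax unknown; endpoint viability.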

[1] = second compound 0.0316 µM, first compound 0.0316 µM
[2] = second compound 0.0316 µM, first compound 0.1 µM
[3] = second compound 0.0316 µM, first compound 0.316 µM
[4] = second compound 0.0316 µM, first compound 1 µM
[5] = second compound 0.0316 µM, first compound 3.16 µM
[6] = second compound 0.0316 µM, first compound 10 µM
[7] = second compound 0.1 µM, first compound 0.0316 µM
[8] = second compound 0.1 µM, first compound 0.1 µM
[9] = second compound 0.1 µM, first compound 0.316 µM
[10] = second compound 0.1 µM, first compound 1 µM
[11] = second compound 0.1 µM, first compound 3.16 µM
[12] = second compound 0.1 µM, first compound 10 µM
[13] = second compound 0.316 µM, first compound 0.0316 µM
[14] = second compound 0.316 µM, first compound 0.1 µM
[15] = second compound 0.316 µM, first compound 0.316 µM
[16] = second compound 0.316 µM, first compound 1 µM
[17] = second compound 0.316 µM, first compound 3.16 µM
[18] = second compound 0.316 µM, first compound 10 µM
[19] = second compound 1 µM, first compound 0.0316 µM
[20] = second compound 1 µM, first compound 0.1 µM
[21] = second compound 1 µM, first compound 0.316 µM
[22] = second compound 1 µM, first compound 1 µM
[23] = second compound 1 µM, first compound 3.16 µM
[24] = second compound 1 µM, first compound 10 µM
[25] = second compound 3.16 µM, first compound 0.0316 µM
[26] = second compound 3.16 µM, first compound 0.1 µM
[27] = second compound 3.16 µM, first compound 0.316 µM
[28] = second compound 3.16 µM, first compound 1 µM
[29] = second compound 3.16 µM, first compound 3.16 µM
[30] = second compound 3.16 µM, first compound 10 µM
[31] = second compound 10 µM, first compound 0.0316 µM
[32] = second compound 10 µM, first compound 0.1 µM
[33] = second compound 10 µM, first compound 0.316 µM
[34] = second compound 10 µM, first compound 1 µM
[35] = second compound 10 µM, first compound 3.16 µM
[36] = second compound 10 µM, first compound 10 µM
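Note: compound exposure lasted seven days before viability was read.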
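Throughout, for viability, T/C: percent of vehicle DMSO treated spheroid viability so 100% = untreated.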

For C=CC(=O)N1CCN(c2nc(=O)n(-c3c(C)ccnc3C(C)C)c3nc(-c4c(O)cccc4F)c(F)cc23)C(C)C1 (centres undefined) + CC(Nc1ncnc2nc[nH]c12)c1cc2cccc(Cl)c2c(=O)n1-c1ccccc1, the IC50 (second compound 0.0316 µM) was greater than 10 µM, the IC50 (second compound 0.1 µM) was greater than 10 µM and the IC50 (second compound 0.316 µM) was greater than 10 µM. It also gave an IC50 (second compound 1 µM) greater than 10 µM, an IC50 (second compound 3.16 µM) greater than 10 µM and an IC50 (second compound 10 µM) greater than 10 µM. For the same compound, the viability, T/C [1] was 94.2%, the viability, T/C [2] was 103% and the viability, T/C [3] was 96.4%. For the same compound, the viability, T/C [4] was 84.3%, the viability, T/C [5] was 83.9% and the viability, T/C [6] was 95.8%. For the same compound, the viability, T/C [7] was 105%, the viability, T/C [8] was 123% and the viability, T/C [9] was 96.8%. For the same compound, the viability, T/C [10] was 120%, the viability, T/C [11] was 114% and the viability, T/C [12] was 108%. For the same compound, the viability, T/C [13] was 86%, the viability, T/C [14] was 88.7% and the viability, T/C [15] was 88.3%. For the same compound, the viability, T/C [16] was 95.7%, the viability, T/C [17] was 98.2% and the viability, T/C [18] was 87.6%. It also gave a viability, T/C [19] of 96.7%, a viability, T/C [20] of 106% and a viability, T/C [21] of 64%. It also gave a viability, T/C [22] of 94.8%, a viability, T/C [23] of 73.4% and a viability, T/C [24] of 68.9%. The viability, T/C [25] was 71.3%, the viability, T/C [26] was 84.3% and the viability, T/C [27] was 89.5%. For the same compound, the viability, T/C [28] was 85.1%, the viability, T/C [29] was 95% and the viability, T/C [30] was 72.2%. It also gave a viability, T/C [31] of 62.1%, a viability, T/C [32] of 99.5% and a viability, T/C [33] of 96.8%. It also gave a viability, T/C [34] of 84.5%, a viability, T/C [35] of 75.5% and a viability, T/C [36] of 68.8%.
Compound CC(C)NCC(C(=O)N1CCN(c2ncnc3c2C(C)CC3O)CC1)c1ccc(Cl)cc1 (centres undefined) + CC(Nc1ncnc2nc[nH]c12)c1cc2cccc(Cl)c2c(=O)n1-c1ccccc1 has an IC50 (second compound 0.0316 µM) of 7.26 µM, an IC50 (second compound 0.1 µM) of 3.42 µM and an IC50 (second compound 0.316 µM) of 6.42 µM. The IC50 (second compound 1 µM) was 1.78 µM, the IC50 (second compound 3.16 µM) was 2.56 µM and the IC50 (second compound 10 µM) was 1.9 µM. For the same compound, the viability, T/C [1] was 75.5%, the viability, T/C [2] was 80% and the viability, T/C [3] was 72.4%. It also gave a viability, T/C [4] of 64%, a viability, T/C [5] of 78.6% and a viability, T/C [6] of 40.6%. The viability, T/C [7] was 91.7%, the viability, T/C [8] was 69.4% and the viability, T/C [9] was 79.6%. For the same compound, the viability, T/C [10] was 60.5%, the viability, T/C [11] was 55.1% and the viability, T/C [12] was 34.1%. For the same compound, the viability, T/C [13] was 93.1%, the viability, T/C [14] was 93% and the viability, T/C [15] was 60.6%. It also gave a viability, T/C [16] of 58%, a viability, T/C [17] of 65.8% and a viability, T/C [18] of 42.3%. The viability, T/C [19] was 100%, the viability, T/C [20] was 87.3% and the viability, T/C [21] was 59.5%. It also gave a viability, T/C [22] of 67.2%, a viability, T/C [23] of 40.5% and a viability, T/C [24] of 31.4%. For the same compound, the viability, T/C [25] was 64.6%, the viability, T/C [26] was 78.1% and the viability, T/C [27] was 70%. For the same compound, the viability, T/C [28] was 64.1%, the viability, T/C [29] was 44.1% and the viability, T/C [30] was 49.6%. The viability, T/C [31] was 69.5%, the viability, T/C [32] was 59.8% and the viability, T/C [33] was 65.5%. For the same compound, the viability, T/C [34] was 62%, the viability, T/C [35] was 40.1% and the viability, T/C [36] was 40.8%.
